The numbers were not newly measured in patent US20200306268A1, “VITAMIN COMPOSITION” (Tempus Bio Technologies LLC, priority 2019, published 2020), which cites them from elsewhere.

As to `C=C1CC[C@H](O)C/C1=C/C=C1\CCC[C@]2(C)[C@@H]([C@H](C)CCCC(C)C)CC[C@@H]12` [vitamin D3, (3β,5Z,7E)-9,10-secocholesta-5,7,10(19)-trien-3-ol], the “solubility in MCT oil” value (MCT oil) is on record as “very soluble”. Moreover, where the note is “water”, the solubility in water result is “not soluble”.
